Activity calls are given as the source filed them. Rule as the data show it, for most assays here: actives have a measured IC50 and inactives only a lower limit.
The compounds below were run against T1, Caspase-3 (Homo sapiens, UniProt P42574). Details: not given.
T1 sequence (P42574 whole entry): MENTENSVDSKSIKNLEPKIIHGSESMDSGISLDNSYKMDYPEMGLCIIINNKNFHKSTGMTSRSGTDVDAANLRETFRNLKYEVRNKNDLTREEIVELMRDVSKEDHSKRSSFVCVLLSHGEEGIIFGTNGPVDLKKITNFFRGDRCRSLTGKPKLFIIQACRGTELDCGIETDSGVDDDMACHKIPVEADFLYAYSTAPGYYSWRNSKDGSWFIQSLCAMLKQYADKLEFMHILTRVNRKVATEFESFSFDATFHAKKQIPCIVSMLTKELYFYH
Format: functional

SMILES	IC50
COc1ccc(C(=O)O/N=C(\N)c2ccc(OC)c(OC)c2)cc1	13.3 µM (active)
COc1ccc(-c2cc(-c3cc(C)ccc3O)n[nH]2)cc1	44.2 µM (active)
CC(=O)c1c(C)oc2ccc(OCc3ccccc3)cc12	39 µM (active)
O=C(Nc1cccs1)Nc1ccc(Br)cc1F	45.8 µM (active)
COC(=O)c1sccc1NC(=O)Cc1ccc(Br)cc1	17.9 µM (active)
O=c1oc(-c2ccco2)nc2sc3c(c12)CCCC3	41.7 µM (active)
O=C(Nc1ccc(Cl)cn1)c1ccc(Oc2ccccc2)cc1	5.66 µM (active)
Cc1cc(C)nc(NC(=O)/C=C/c2ccc(Cl)cc2Cl)c1	14.1 µM (active)
COc1ccc(/N=C(\C)C2=C(O)c3ccccc3C2=O)cc1	4.38 µM (active)
O=C(O/N=C1\CCCc2ccccc21)c1ccc(F)cc1	2.23 µM (active)

These compounds were tested against T2, Sentrin-specific protease 7 (Homo sapiens, UniProt Q9BQF6). Details: not given.
T2 sequence (Q9BQF6 whole entry): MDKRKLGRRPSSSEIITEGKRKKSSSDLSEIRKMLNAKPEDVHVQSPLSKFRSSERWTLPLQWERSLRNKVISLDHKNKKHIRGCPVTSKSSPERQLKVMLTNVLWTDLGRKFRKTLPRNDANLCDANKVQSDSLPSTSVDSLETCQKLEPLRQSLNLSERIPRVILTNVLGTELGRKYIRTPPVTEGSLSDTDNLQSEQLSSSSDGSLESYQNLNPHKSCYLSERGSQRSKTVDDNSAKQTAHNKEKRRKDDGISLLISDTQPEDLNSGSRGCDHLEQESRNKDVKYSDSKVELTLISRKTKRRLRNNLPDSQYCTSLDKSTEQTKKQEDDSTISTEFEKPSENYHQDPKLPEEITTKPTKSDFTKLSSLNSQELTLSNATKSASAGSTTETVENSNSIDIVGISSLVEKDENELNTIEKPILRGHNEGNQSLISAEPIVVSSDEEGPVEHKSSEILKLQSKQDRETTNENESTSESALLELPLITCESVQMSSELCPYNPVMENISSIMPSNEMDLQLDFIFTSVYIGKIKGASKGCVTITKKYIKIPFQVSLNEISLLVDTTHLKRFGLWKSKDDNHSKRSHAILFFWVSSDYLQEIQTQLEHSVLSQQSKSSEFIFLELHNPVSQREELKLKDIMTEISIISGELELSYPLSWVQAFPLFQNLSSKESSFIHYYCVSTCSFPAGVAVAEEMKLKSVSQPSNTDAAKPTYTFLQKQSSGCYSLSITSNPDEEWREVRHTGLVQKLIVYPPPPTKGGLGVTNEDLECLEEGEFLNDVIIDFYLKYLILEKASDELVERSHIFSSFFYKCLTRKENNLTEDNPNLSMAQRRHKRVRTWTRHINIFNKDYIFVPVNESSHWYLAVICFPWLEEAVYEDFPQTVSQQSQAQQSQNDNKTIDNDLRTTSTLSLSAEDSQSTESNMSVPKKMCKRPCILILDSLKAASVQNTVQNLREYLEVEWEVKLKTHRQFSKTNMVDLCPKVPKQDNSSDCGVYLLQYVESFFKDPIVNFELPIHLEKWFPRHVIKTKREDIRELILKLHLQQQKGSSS
Format: functional

SMILES	IC50
COc1ccc(C(=O)O/N=C(\N)c2ccc(OC)c(OC)c2)cc1	8.96 µM (active)
COc1ccc(-c2cc(-c3cc(C)ccc3O)n[nH]2)cc1	4.46 µM (active)
CC(=O)c1c(C)oc2ccc(OCc3ccccc3)cc12	11.4 µM (active)
O=C(Nc1cccs1)Nc1ccc(Br)cc1F	11.4 µM (active)
COC(=O)c1sccc1NC(=O)Cc1ccc(Br)cc1	7.65 µM (active)
O=c1oc(-c2ccco2)nc2sc3c(c12)CCCC3	5.4 µM (active)
O=C(Nc1ccc(Cl)cn1)c1ccc(Oc2ccccc2)cc1	2.3 µM (active)
Cc1cc(C)nc(NC(=O)/C=C/c2ccc(Cl)cc2Cl)c1	3.39 µM (active)
COc1ccc(/N=C(\C)C2=C(O)c3ccccc3C2=O)cc1	1.99 µM (active)
O=C(O/N=C1\CCCc2ccccc21)c1ccc(F)cc1	2.15 µM (active)

These compounds were tested against T3, Heat shock factor protein 1 (Mus musculus, UniProt P38532) (assay: HSF1 potentiators in luciferase reporter cells, confirmation, cell-based, NIH3T3, luminescence, dose retest (AID 435004)). Details: not given.
T3 sequence (P38532 whole entry): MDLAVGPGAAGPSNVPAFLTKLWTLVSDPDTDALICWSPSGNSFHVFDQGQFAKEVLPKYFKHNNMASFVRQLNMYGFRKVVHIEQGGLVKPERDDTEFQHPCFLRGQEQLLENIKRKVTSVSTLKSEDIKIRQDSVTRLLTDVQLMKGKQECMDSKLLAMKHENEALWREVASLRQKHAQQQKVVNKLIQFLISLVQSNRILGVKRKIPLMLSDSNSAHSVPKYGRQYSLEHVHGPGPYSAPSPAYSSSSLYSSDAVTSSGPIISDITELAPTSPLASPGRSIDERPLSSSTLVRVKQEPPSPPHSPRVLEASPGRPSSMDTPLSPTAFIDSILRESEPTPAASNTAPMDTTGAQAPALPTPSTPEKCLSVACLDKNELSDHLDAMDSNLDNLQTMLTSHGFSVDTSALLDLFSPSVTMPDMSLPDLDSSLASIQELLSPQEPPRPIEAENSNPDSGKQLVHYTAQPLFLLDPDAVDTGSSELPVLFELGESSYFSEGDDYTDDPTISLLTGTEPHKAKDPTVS
Format: functional

SMILES	EC50
COc1ccc(/N=C(\C)C2=C(O)c3ccccc3C2=O)cc1	> 260 µM (inactive)

What follows are compounds tested against T4, Sentrin-specific protease 6 (Homo sapiens, UniProt Q9GZR1). Details: not given.
T4 sequence (Q9GZR1 whole entry): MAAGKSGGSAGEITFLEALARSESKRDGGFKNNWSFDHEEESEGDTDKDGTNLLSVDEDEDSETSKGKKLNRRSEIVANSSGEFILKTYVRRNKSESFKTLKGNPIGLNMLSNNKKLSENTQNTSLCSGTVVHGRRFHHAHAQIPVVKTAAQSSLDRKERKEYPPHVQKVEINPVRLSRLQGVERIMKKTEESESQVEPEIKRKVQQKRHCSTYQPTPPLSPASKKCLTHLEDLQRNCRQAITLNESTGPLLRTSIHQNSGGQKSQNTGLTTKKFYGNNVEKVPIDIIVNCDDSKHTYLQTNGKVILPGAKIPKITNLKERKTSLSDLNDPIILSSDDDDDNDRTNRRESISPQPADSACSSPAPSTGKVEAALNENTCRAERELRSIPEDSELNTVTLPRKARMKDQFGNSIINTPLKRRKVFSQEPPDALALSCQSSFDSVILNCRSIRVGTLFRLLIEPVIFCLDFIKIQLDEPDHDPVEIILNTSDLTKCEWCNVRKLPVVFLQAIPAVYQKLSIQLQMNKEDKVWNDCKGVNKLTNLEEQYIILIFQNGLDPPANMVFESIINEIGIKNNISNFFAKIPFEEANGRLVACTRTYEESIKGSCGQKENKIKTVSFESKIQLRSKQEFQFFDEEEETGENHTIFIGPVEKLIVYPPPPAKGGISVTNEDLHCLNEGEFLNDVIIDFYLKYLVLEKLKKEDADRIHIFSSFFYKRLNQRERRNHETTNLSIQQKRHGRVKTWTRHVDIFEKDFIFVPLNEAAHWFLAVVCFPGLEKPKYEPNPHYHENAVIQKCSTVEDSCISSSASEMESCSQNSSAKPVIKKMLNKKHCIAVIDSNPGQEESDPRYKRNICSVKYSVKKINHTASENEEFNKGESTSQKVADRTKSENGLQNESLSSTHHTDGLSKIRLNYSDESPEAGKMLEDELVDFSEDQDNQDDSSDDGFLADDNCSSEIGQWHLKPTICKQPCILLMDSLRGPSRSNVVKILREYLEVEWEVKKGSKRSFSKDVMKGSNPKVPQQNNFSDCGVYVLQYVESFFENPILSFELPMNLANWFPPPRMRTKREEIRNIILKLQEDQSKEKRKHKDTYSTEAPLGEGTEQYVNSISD
Format: functional

SMILES	IC50
COc1ccc(C(=O)O/N=C(\N)c2ccc(OC)c(OC)c2)cc1	11.5 µM (active)
COc1ccc(-c2cc(-c3cc(C)ccc3O)n[nH]2)cc1	10.3 µM (active)
CC(=O)c1c(C)oc2ccc(OCc3ccccc3)cc12	45.3 µM (active)
O=C(Nc1cccs1)Nc1ccc(Br)cc1F	86.7 µM (active)
COC(=O)c1sccc1NC(=O)Cc1ccc(Br)cc1	20.3 µM (active)
O=c1oc(-c2ccco2)nc2sc3c(c12)CCCC3	35.1 µM (active)
O=C(Nc1ccc(Cl)cn1)c1ccc(Oc2ccccc2)cc1	3.22 µM (active)
Cc1cc(C)nc(NC(=O)/C=C/c2ccc(Cl)cc2Cl)c1	3.51 µM (active)
COc1ccc(/N=C(\C)C2=C(O)c3ccccc3C2=O)cc1	5.08 µM (active)
O=C(O/N=C1\CCCc2ccccc21)c1ccc(F)cc1	2.34 µM (active)

These compounds were tested against T5, Sentrin-specific protease 8 (Homo sapiens, UniProt Q96LD8). Details: not given.
T5 sequence (Q96LD8 whole entry): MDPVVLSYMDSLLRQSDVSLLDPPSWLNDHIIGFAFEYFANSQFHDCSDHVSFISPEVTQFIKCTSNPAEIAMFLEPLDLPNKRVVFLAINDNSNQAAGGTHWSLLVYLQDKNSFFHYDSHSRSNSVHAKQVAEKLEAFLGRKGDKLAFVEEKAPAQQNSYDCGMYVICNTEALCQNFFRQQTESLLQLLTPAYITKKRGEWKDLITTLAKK
Format: functional

SMILES	IC50
COc1ccc(C(=O)O/N=C(\N)c2ccc(OC)c(OC)c2)cc1	11.5 µM (active)
COc1ccc(-c2cc(-c3cc(C)ccc3O)n[nH]2)cc1	9.6 µM (active)
CC(=O)c1c(C)oc2ccc(OCc3ccccc3)cc12	75.8 µM (active)
O=C(Nc1cccs1)Nc1ccc(Br)cc1F	> 100 µM (inactive)
COC(=O)c1sccc1NC(=O)Cc1ccc(Br)cc1	24.8 µM (active)
O=c1oc(-c2ccco2)nc2sc3c(c12)CCCC3	> 100 µM (inactive)
O=C(Nc1ccc(Cl)cn1)c1ccc(Oc2ccccc2)cc1	3.37 µM (active)
Cc1cc(C)nc(NC(=O)/C=C/c2ccc(Cl)cc2Cl)c1	3.93 µM (active)
COc1ccc(/N=C(\C)C2=C(O)c3ccccc3C2=O)cc1	6.43 µM (active)
O=C(O/N=C1\CCCc2ccccc21)c1ccc(F)cc1	2.09 µM (active)

What follows are compounds tested against T6, Corticotropin-releasing factor receptor 2/Corticotropin-releasing factor-binding protein (Homo sapiens, UniProt P24387+Q13324) (assay: Dose Response confirmation of uHTS hits for small molecule antagonists of the CRF-binding protein and CRF-R2 receptor complex.). Details: read-out: IC50_Mean.
T6 sequence (Q13324 whole entry): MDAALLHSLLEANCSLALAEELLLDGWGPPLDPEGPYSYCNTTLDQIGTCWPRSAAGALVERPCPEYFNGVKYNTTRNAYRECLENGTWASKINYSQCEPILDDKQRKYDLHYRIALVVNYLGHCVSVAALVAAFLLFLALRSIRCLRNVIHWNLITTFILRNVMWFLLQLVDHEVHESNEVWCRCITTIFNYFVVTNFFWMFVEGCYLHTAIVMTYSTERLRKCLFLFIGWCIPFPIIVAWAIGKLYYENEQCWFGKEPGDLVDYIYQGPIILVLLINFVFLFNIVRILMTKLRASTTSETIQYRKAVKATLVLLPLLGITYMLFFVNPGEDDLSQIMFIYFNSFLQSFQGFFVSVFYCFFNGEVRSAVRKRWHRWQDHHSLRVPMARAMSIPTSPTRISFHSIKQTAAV
T6 sequence (P24387 whole entry): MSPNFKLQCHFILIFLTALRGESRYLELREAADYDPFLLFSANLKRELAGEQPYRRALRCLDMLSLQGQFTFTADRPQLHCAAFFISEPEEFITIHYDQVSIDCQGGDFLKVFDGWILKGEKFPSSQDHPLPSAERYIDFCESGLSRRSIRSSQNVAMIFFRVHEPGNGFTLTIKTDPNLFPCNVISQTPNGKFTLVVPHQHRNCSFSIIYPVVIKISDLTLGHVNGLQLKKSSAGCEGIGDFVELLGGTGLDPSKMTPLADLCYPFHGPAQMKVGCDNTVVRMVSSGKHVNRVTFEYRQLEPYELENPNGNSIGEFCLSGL
Format: functional

SMILES	IC50
O=c1oc(-c2ccco2)nc2sc3c(c12)CCCC3	> 47.1 µM (inactive)

Each compound was assayed against T6, Corticotropin-releasing factor receptor 2/Corticotropin-releasing factor-binding protein (assay: activators of CRF receptor 2 with binding protein – uHTS hits, confirmation (AID 602473)). Details: read-out: EC50_Mean.
Format: functional

SMILES	EC50
O=c1oc(-c2ccco2)nc2sc3c(c12)CCCC3	> 53 µM (inactive)

The compounds below were run against Cytochrome P450 2D6 (Homo sapiens, UniProt P10635). Details: not given.
Cytochrome P450 2D6, sequence (P10635 whole entry): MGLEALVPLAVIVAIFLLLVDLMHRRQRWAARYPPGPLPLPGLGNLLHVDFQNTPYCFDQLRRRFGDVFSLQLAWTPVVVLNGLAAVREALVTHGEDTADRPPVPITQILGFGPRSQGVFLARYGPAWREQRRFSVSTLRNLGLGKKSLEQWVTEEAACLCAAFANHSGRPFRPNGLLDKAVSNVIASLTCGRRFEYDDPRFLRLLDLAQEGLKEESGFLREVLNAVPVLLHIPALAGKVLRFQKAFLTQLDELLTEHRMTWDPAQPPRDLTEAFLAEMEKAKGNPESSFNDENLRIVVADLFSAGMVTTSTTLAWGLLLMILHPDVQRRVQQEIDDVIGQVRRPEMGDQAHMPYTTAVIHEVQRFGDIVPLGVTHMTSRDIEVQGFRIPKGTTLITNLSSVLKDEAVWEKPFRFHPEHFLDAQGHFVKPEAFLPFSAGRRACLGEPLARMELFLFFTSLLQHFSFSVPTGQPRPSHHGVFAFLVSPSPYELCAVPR

SMILES	AC50
Cc1cc(C)nc(NC(=O)/C=C/c2ccc(Cl)cc2Cl)c1	20 µM (inconclusive)

What follows are compounds tested against Cytochrome P450 2C9 (Homo sapiens, UniProt P11712). Details: not given.
Cytochrome P450 2C9, sequence (P11712 whole entry): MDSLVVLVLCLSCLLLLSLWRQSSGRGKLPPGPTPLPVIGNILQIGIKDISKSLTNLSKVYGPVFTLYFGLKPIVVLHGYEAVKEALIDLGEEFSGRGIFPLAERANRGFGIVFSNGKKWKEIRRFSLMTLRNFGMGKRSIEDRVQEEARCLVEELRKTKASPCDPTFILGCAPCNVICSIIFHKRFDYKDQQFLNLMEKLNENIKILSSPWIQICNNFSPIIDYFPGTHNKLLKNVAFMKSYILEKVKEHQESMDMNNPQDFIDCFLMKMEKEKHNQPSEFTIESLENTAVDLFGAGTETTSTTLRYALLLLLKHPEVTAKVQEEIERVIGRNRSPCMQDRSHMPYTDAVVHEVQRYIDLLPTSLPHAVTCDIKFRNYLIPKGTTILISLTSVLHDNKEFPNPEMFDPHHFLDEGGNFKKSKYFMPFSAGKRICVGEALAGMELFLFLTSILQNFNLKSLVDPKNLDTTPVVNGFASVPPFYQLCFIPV

SMILES	AC50
Cc1cc(C)nc(NC(=O)/C=C/c2ccc(Cl)cc2Cl)c1	inconclusive
